Article PMC10348910, “Epigenetic reprogramming of cell cycle genes by ACK1 promotes breast cancer resistance to CDK4/6 inhibitor” (Oncogene, 2023)

Legend:
[1] = test system: breast cancer cell lines; test: cell cycle analysis, propidium iodide flow cytometry; format: cell-based; details: 48 h
Protocol: (§1) A–F Breast cancer cells were treated with either vehicle or (R)-9b for 48 h; cells were harvested and processed for cell cycle analysis using propidium iodide staining, followed by flow cytometry. G BT549 and H MDA-MB-468 cells were treated with varying drug concentrations of palbociclib or (R)-9b for 96 h and the cell viability assessed using trypan blue exclusion method. I BT549, and J MDA-MB-468 cells were treated with 1 µM palbociclib or (R)-9b for 48 h and subjected to cell cycle analysis using propidium iodide staining, followed by flow-cytometry. Palbociclib-resistant MDA-MB-231 (K) and HCC-1395 (L) were generated and treated with varying drug concentrations of palbociclib or (R)-9b for 96 h and the cell viability assessed using trypan blue exclusion method.
(§2) For proliferation assay, 5 × 10^4 cells were plated in 6-well plate and treated with either vehicle (DMSO) or varying concentrations of (R)-9b or palbociclib in complete media for 96 h and number of viable cells were counted by trypan blue exclusion assay. Breast cancer cell lines were treated with vehicle or varying concentrations of (R)-9b for 72 h. The cells were harvested, washed 2 times with PBS and incubated with 3 ul of Annexin V-FITC antibody according to the manufacturers protocol (BD Biosciences). Five µl Propidium iodide was used to stain necrotic cells. The cells were acquired using the BD FACSCalibur machine (BD Biosciences) and data was analyzed using FlowJo software. Cell cycle analysis was performed as mentioned earlier. Briefly, vehicle or (R)-9b (48 h) treated cells were harvested by trypsinization, washed 2 times with PBS, and fixed using chilled 70% Ethanol for 1 h, followed by 2 washes with PBS. The cell pellets were treated with 50 µl RNase A (100 µg/ml; Sigma) for 15 min at 37 °C and Propidium Iodide (PI; 50 µg/ml, Sigma) was added to these cells, followed by acquisition using BD FACS Canto-II or FACSCalibur machines. The data were analyzed using FlowJo software.

[2] = test system: normal breast cells, MCF10a; test: as above; format: cell-based; details: 48 h
Protocol: as §1, §2

[3] = test system: MCF7, SKBR3, HCC-1395 and MDA-MB-453; test: apoptosis assay, Annexin V-FITC/PI flow cytometry; format: cell-based; details: 0.25, 0.5, 1 µM
Protocol: For proliferation assay, 5 × 10^4 cells were plated in 6-well plate and treated with either vehicle (DMSO) or varying concentrations of (R)-9b or palbociclib in complete media for 96 h and number of viable cells were counted by trypan blue exclusion assay. Breast cancer cell lines were treated with vehicle or varying concentrations of (R)-9b for 72 h. The cells were harvested, washed 2 times with PBS and incubated with 3 ul of Annexin V-FITC antibody according to the manufacturers protocol (BD Biosciences). Five µl Propidium iodide was used to stain necrotic cells. The cells were acquired using the BD FACSCalibur machine (BD Biosciences) and data was analyzed using FlowJo software. Cell cycle analysis was performed as mentioned earlier. Briefly, vehicle or (R)-9b (48 h) treated cells were harvested by trypsinization, washed 2 times with PBS, and fixed using chilled 70% Ethanol for 1 h, followed by 2 washes with PBS. […] The data were analyzed using FlowJo software. […]
(A) MCF7, SKBR3, HCC-1395 and MDA-MB-453 cells were treated with 0.25µM, 0.5µM and 1 µM (R)-9b for 96h. […] Quantification of the live, early apoptotic, late apoptotic and necrotic cells is represented using stacked columns. […]

[4] = test system: CCNB1, CCNB2 and CDC20 mRNA; test: qRT-PCR of CCNB1, CCNB2 and CDC20 in breast cancer cells; format: cell-based; details: MCF7, MDA-MB-453, SKBR3 and HCC-1395 cells; overnight
Protocol: Fig. 2 ACK1 regulates breast cancer transcriptome, affecting genes implicated in cell cycle progression. A Chemical structure of (R)-9b. B Breast cancer cell lines were treated with either vehicle or (R)-9b overnight and cell lysates were subjected to immunoprecipitation using ACK1 antibody, followed by immunoblotting with pY284-ACK1 antibody. Lysates were also subjected to immunoblotting with total ACK1 and Actin antibodies, shown in the lower panels. […] C Breast cancer cell lines were treated with varying concentrations of (R)-9b for 96 h and the cell proliferation was measured using Trypan Blue exclusion method. D–H RNA from breast cancer cells treated with vehicle or varying concentrations of (R)-9b overnight, and were subjected to qRT-PCR using CCNB1, CCNB2 and CDC20 primers. Actin or 18S rRNA was used as housekeeping control. For (B), representative images of three independent experiments are shown. For (C), a four parameter, variable slope, non-linear regression curve was computed, representing three independent experiments. […]
Real-time quantitative PCR analyses were performed using the ABI PRISM 7900HT Sequence Detection System (Applied Biosystems) as described earlier. […] Data were analyzed using SDS software version 2.2.2 and exported into an Excel spreadsheet. […]

[5] = test system: MDA-MB-231 lung metastasis; test: tail vein assay of cancer metastasis; format: in vivo, female SCID mice; details: 24 mg/Kg, 5 days a week
Protocol: To validate the functional significance in vivo, we performed the tail vein assay of cancer metastasis. Briefly, MDA-MB-231 cells were injected in tail veins of female SCID mice and were treated with vehicle or 24 mg/Kg (R)-9b either subcutaneously or orally, for 5 days a week. The mice were euthanized and the lungs were harvested, preserved in 10% neutral buffered formalin, followed by H&E staining. Sections were examined by pathologist (C.W), and scored for metastatic nodules/deposits in 12 × 10 mm area of lung tissue.
MDA-MB-231 cells (2 × 10^5 in PBS), were injected intravenously in the lateral tail vein of female SCID mice. After 10 days, the mice were randomly chosen for treatment with either vehicle, (R)-9b (36 mg/Kg body weight) orally or subcutaneously (s.c.) (24 mg/Kg body weight) for 5 days a week, for 2 weeks. The mice were sacrificed and the lungs were harvested and fixed in 10% neutral buffered formalin. The number of metastatic foci per lung were scored in a blinded fashion by a pathologist (C.W.).

[6] = test system: phospho-serine 139-γH2AX; test: γH2AX immunocytochemistry; format: cell-based; details: breast cancer cell lines, 48h
Protocol: Breast cancer cells were grown over coverslips and treated with vehicle or (R)-9b. The cells were fixed in 2% paraformaldehyde and permeabilized. The cells were stained with phospho-serine 139-γH2AX antibody (Red), phalloidin (green) and DAPI. Fluorescent microscopic images were captured. […]
breaks in breast cancer cell lines
Breast cancer cell lines were treated with either vehicle or (R)-9b for 48h and stained with phospho-serine 139-γH2AX antibody (Red), phalloidin (green) and DAPI. Representative images of fluorescent microscopic analysis are shown.

`CN1CCN(c2ccc(Nc3ncc(Cl)c(NC[C@H]4CCCO4)n3)cc2)CC1` [(R)-9b] was tested, and the cell cycle effect ([1]; MDA-MB-453, MCF7, HCC-1395, SKBR3 and T47D) was “arrest in G2/M phase”, the cell cycle effect ([1]; palbociclib-resistant BT549 and MDA-MB-468 cells, 1 µM) was “G2/M cell cycle arrest” and the cell cycle effect [2] was “no G2/M arrest”. The “number of cells undergoing apoptosis” value [3] was “marked increase”, the “CCNB1, CCNB2 and CDC20 mRNA transcripts” value [4] was “significant downregulation” and the lung metastatic deposits ([5]; (R)-9b oral) was 2 deposits. The lung metastatic deposits ([5]; (R)-9b subcutaneous) was “no deposits” and the “γH2AX staining (DNA damage, double strand breaks)” value [6] was “poor γH2AX staining”.
